In the supplement of paper PMC10307832:

Assays:
Assay in all cases: relative viability (nuclei count vs DMSO), 5 days (fraction); higher = more cells survive
[1] = compound: CC1=C(C(=O)N2C=CSC2=N1)CCN3CCC(=C(C4=CC=CC=C4)C5=CC=C(C=C5)F)CC3 + Cc1nc(NC(=O)N2CCC[C@H]2C(N)=O)sc1-c1ccnc(C(C)(C)C(F)(F)F)c1 [Alpelisib] (partner 2 µM)
Procedure, shortened: (§1)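 After 5 days of treatment, lung cancer cells in 1536-well plates were fixed and stained in a single step (final 0.05% Triton X-100, 1% formaldehyde, 1 ug/ml Hoechst) and their nuclei counted on 4× images. Treatment had been applied by pin tool the day after seeding as one drug alone or as a fixed anchor-drug dose with five library-drug doses (not always all listed) in √10 steps. Relative viability is the nuclei count of treated wells divided by that of vehicle wells, and values are medians of duplicate plates.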

[2] = compound: CC1=C(C(=O)N2C=CSC2=N1)CCN3CCC(=C(C4=CC=CC=C4)C5=CC=C(C=C5)F)CC3 + CS(=O)(=O)N1CCN(Cc2cc3nc(-c4cccc5[nH]ncc45)nc(N4CCOCC4)c3s2)CC1 [Pictilisib] (partner 1 µM)
Procedure, shortened: as §1

[3] = compound: CC1=C(C(=O)N2C=CSC2=N1)CCN3CCC(=C(C4=CC=CC=C4)C5=CC=C(C=C5)F)CC3 + NC(=O)Nc1cc(-c2cccc(F)c2)sc1C(=O)N[C@H]1CCCNC1 [AZD7762] (partner 0.2 µM)
Procedure, shortened: as §1

[4] = compound: CC1=C(C(=O)N2C=CSC2=N1)CCN3CCC(=C(C4=CC=CC=C4)C5=CC=C(C=C5)F)CC3 + N=C(N)NC(=N)NCCc1ccccc1 [Phenformin] (partner 250 µM)
Procedure, shortened: as §1

Cell Line | relative viability ([1]; first compound 0.08 µM) | relative viability ([1]; first compound 0.253 µM) | relative viability ([1]; first compound 0.8 µM) | relative viability ([1]; first compound 2.53 µM) | relative viability ([1]; first compound 8 µM) | relative viability ([2]; first compound 0.08 µM) | relative viability ([2]; first compound 0.253 µM) | relative viability ([2]; first compound 0.8 µM) | relative viability ([2]; first compound 2.53 µM) | relative viability ([2]; first compound 8 µM) | relative viability ([3]; first compound 0.08 µM) | relative viability ([3]; first compound 0.253 µM) | relative viability ([3]; first compound 0.8 µM) | relative viability ([3]; first compound 2.53 µM) | relative viability ([3]; first compound 8 µM) | relative viability ([4]; first compound 0.08 µM) | relative viability ([4]; first compound 0.253 µM) | relative viability ([4]; first compound 0.8 µM) | relative viability ([4]; first compound 2.53 µM) | relative viability ([4]; first compound 8 µM)
NCI-H2347 | 0.942 | 0.855 | 1.18 | 1.02 | 0.791 | 0.417 | 0.691 | 0.764 | 0.394 | 0.614 | 0.603 | 0.692 | 0.773 | 0.895 | 0.553 | 0.299 | 0.403 | 0.317 | 0.421 | 0.397
NCI-H2405 | 0.74 | 0.798 | 0.914 | 0.792 | 0.731 | 0.426 | 0.432 | 0.481 | 0.531 | 0.347 | 0.901 |  | 0.725 | 0.74 | 0.55 | 0.373 | 0.366 | 0.399 | 0.375 | 0.332
NCI-H3122 | 0.794 | 0.701 | 0.781 | 0.915 | 0.752 | 0.72 | 0.678 | 0.574 | 0.768 | 0.623 | 0.86 | 1.05 | 0.983 | 1.14 | 0.59 | 0.38 | 0.376 | 0.386 | 0.396 | 0.394
PC-3 [JPC-3] | 0.959 | 1.1 | 1.07 | 1.08 | 0.899 | 0.78 | 0.746 | 0.72 | 0.765 | 0.711 | 0.768 |  | 0.815 | 0.78 | 0.736 | 0.49 | 0.451 | 0.454 | 0.525 | 0.495
PC-14 | 0.738 | 1.04 | 0.955 | 0.979 | 0.624 | 0.604 | 0.617 | 0.708 | 0.93 | 0.399 | 0.373 | 0.312 | 0.369 | 0.371 | 0.246 | 0.624 | 0.558 | 0.518 | 0.661 | 0.296
RERF-LC-KJ | 0.743 | 0.844 | 0.8 | 0.758 | 0.633 | 0.627 | 0.495 | 0.511 | 0.497 | 0.487 | 0.636 | 0.936 | 1.15 | 0.945 | 0.584 | 0.345 | 0.427 | 0.414 | 0.534 | 0.289
